Measurements as given in patent US4596806A, “7-piperidino-1,2,3,5-tetrahydroimidazo[2,1-b]-quinazolin-2-one having platelet aggregation inhibitory activity” (Daiichi Seiyaku Co., Ltd., priority 1983, dated 1986).
Read-outs that look alike come from different tables or passages of the source.

Experiments:
3LL-induced aggregation = test: Test of Inhibition of Platelet Aggregation Caused by Cancer Cells (ex vivo), 3LL; type: in vivo, C57BL/6 mouse
Protocol: The compound of the invention (dihydrochloride monohydrate) dissolved in a physiological saline solution (J.P.) was intravenously or orally administered to a 7-week-old C57BL/6 male mouse (body weight: about 20 g). Three minutes after the intravenous administration or 1 hour later from the oral administration, blood was taken from the abdominal vein into a syringe containing 1/10 volume of a 3.13% aqueous solution of sodium citrate dihydrate and PRP was prepared as described before in Test Example 6. The PRP was placed in a reaction tube under the same conditions as in Test Example 6, and 5 μl of a 200 mM calcium chloride aqueous solution was added thereto. One minute later, 50 μl of a B16BL6 (5×10^4 cells/50 μl)- or a 3LL (2×10^6 cells/50 μl)-cell suspension was added to the system. In the same manner as in Test Example 6, platelet aggregation was determined.

[1] = LD50 (probit method), mouse; details: in vivo, iv
[2] = test system: pancreatic juice secretion; test: Test of Stimulation on Pancreatic Juice Secretion in Dog; type: in vivo, dog (adult mongrel); details: for total output amount of bicarbonate ions as compared with the control: 30 minutes after administration; for Pancreatic Juice Secretion, Total: total 0-60 min; for total volume of pancreatic juice as compared with the control (100%): total after 60 minutes
Protocol: Adult mongrel dogs (male and female) having a body weight of 11.8 to 15.8 Kg were anesthetized with Nembutal and Phenobal and a cannula was inserted into pancreatic duct. A solution of Compound (I) dissolved in a physiological saline solution was administered intravenously from femoral vein at a dose of 0.5 ml/Kg. The volume of pancreatic juice was determined in a polyethylene tube connected to the cannula, and the bicarbonate ion concentration in the pancreatic juice was determined by neutralization titration. As a control, a physiological saline solution was administered intravenously.

platelet aggregation [3] = test: Test of Platelet Aggregation Inhibition (ex vivo, p.o.); type: in vivo, rat (male Wistar Imamichi); details: for inhibition at 1 mg/kg / inhibition at 10 mg/kg: Rattus norvegicus, Platelet, po, 1 h, read-out: Platelet Aggregation Inhibitory Activity (ex vivo: % inhibition); for inhibition at 1 mg/kg: p.o. 1 mg/Kg; for inhibition at 10 mg/kg: p.o. 10 mg/Kg
Protocol: One hour later, citrated blood was taken from the heart, and platelet aggregation was determined in the same manner as described in Test Example 2.

platelet aggregation [4] = test: Test of Platelet Aggregation Inhibition (in vitro), rat PRP; type: cell-based, rat (Wistar Imamichi); details: rat blood, read-out: Platelet Aggregation Inhibitory Activity (in vitro: IC50)
Protocol: The test was performed as follows in accordance with the method of Ashida et al, Thrombosis and Haemostasis, Vol. 40, p542 (1979).
Blood was taken by puncture from the heart of a Wistar Imamichi rat under anesthesia with pentobarbital into a syringe containing 1/10 volume of a 3.13% aqueous solution of sodium citrate dihydrate, and the citrated blood was centrifuged to obtain a platelet-rich-plasma (PRP). In the same manner, citrated blood was collected from the vein of a healthy human who had not taken aspirin or any other anti-inflammatory agent since before 10 days, followed by centrifugation to obtain PRP. 0.005 ml of each test compound was added to 0.445 ml each of these PRP samples, and the system was warmed at 30° C. for 1 minute. 0.05 ml of an aggregation inducer (ADP or collagen) was then added thereto, and platelet aggregation was determined according to the method of Born, Nature, Vol. 194, p927 (1962). The inhibitory activity of platelet aggregation was expressed in terms of 50% inhibition concentration, and the results obtained are shown in Table 2.

3LL = test: Test of Inhibition on Pulmonary Metastasis, 3LL; type: in vivo, C57BL/6 mouse; details: day 11, mean ± standard error
Protocol: 1×10^5 cells/animal of B16BL6 or 7×10^5 cells/animal of 3LL were inoculated to the tail vein of 10 to 12 6-week-old C57BL/6 male mice per group (body weight: about 18.5 g). The compound (I) (dihydrochloride monohydrate) dissolved in a physiological saline solution (J.P.) was administered to each animal at a dose of 1, 3 or 10 mg/kg orally 24 hours, 1 hour before and 1 hour after the inoculation, or intravenously immediately before the inoculation. On the 13th day from the inoculation of B16BL6 or 11th day from the inoculation of 3LL, the number of metastatic nodules in the lungs was counted using an operating microscope.

platelet aggregation [5] = test: Test of Platelet Aggregation Inhibition (ex vivo; i.v.); set-up: species or system rat (male Wistar-Imamichi); details: Rattus norvegicus, iv, 0.25 h, 15 min, read-out: Platelet Aggregation Inhibitory Activity (in vivo: % inhibition); for inhibition at 0.02 mg/kg: i.v. 0.02 mg/Kg/min; for inhibition at 0.067 mg/kg: i.v. 0.067 mg/Kg/min
Protocol: As test animals, 5 male Wistar-Imamichi rats (body weight: about 270 g) that had been allowed food and water ad libitum were used per group. The test compound was dissolved in a physiological saline solution (J.P.) and continuously injected to the rats under anesthesia with pentobarbital through the femoral vein. 15 minutes later, citrated blood was taken from the heart, and platelet aggregation was determined in the same manner as in Test Example 2.

circulatory system = test: Test of Influence on Circulatory System (blood pressure, heart beat); type: in vivo, rat (male normal SLC-Wistar); details: p.o. 50 mg/Kg
Protocol: 5 or 6 male normal SLC-Wistar rats per group (body weight: 205-255 g) orally received 50 mg/Kg of the test compound, and the blood pressure (tail cuff method) and the heart beats were measured with the passage of time in order to elucidate influences of the test compound on the circulatory system.

## O=C1CN2Cc3cc(N4CCCCC4)ccc3N=C2N1 [Compound (I), 7-piperidino-1,2,3,5-tetrahydroimidazo[2,1-b]quinazolin-2-one]
3LL-induced aggregation; 10 mg/kg (i.v.)
  delay of 3LL-induced aggregation (ex vivo): ≥ 150%
3LL-induced aggregation; 30 mg/kg (i.v.)
  inhibition of 3LL-induced aggregation (ex vivo): completely inhibited
[1]; female ddy mouse
  LD50: 380 mg/kg
[1]; male ddy mouse
  LD50: 314 mg/kg
[2]; 300 μg/Kg
  total output amount of bicarbonate ions as compared with the control: 198%
[2]; 1000 μg/Kg
  bicarbonate ion concentration in pancreatic juice as compared with the control: 266%
  total output amount of bicarbonate ions as compared with the control: 674%
[2]; i.v. 100 μg/Kg
  bicarbonate ion concentration in pancreatic juice as compared with the control: 109%
  total output amount of bicarbonate ions as compared with the control: 116%
[2]; i.v. 100 μg/kg
  Amount of Bicarbonate Ion Secretion: 44.6 ± 9.3 µEq/h
  Bicarbonate Ion Concentration: 44.5 ± 6.1 mEq/l
  activity on the pancreatic juice secretion (in words): did not show any significant activity
  Pancreatic Juice Secretion, Total: 950 ± 185 µL
[2]; i.v. 100 μg/kg, 0-15 min
  Pancreatic Juice Secretion: 323 ± 81 µL
[2]; i.v. 100 μg/kg, 15-30 min
  Pancreatic Juice Secretion: 223 ± 45 µL
[2]; i.v. 100 μg/kg, 30-45 min
  Pancreatic Juice Secretion: 178 ± 31 µL
[2]; i.v. 100 μg/kg, 45-60 min
  Pancreatic Juice Secretion: 226 ± 48 µL
[2]; i.v. 300 μg/Kg
  bicarbonate ion concentration in pancreatic juice as compared with the control: 130%
  total volume of pancreatic juice as compared with the control (100%): 161%
[2]; i.v. 300 μg/kg
  Amount of Bicarbonate Ion Secretion: 65.9 ± 9.6 µEq/h
  Bicarbonate Ion Concentration: 45.8 ± 2.1 mEq/l
  Pancreatic Juice Secretion, Total: 1444 ± 214 µL
[2]; i.v. 300 μg/kg, 0-15 min
  Pancreatic Juice Secretion: 521 ± 112 µL
[2]; i.v. 300 μg/kg, 15-30 min
  Pancreatic Juice Secretion: 321 ± 53 µL
[2]; i.v. 300 μg/kg, 30-45 min
  Pancreatic Juice Secretion: 291 ± 44 µL
[2]; i.v. 300 μg/kg, 45-60 min
  Pancreatic Juice Secretion: 310 ± 31 µL
[2]; i.v. 300 μg/kg, after 15 minutes
  pancreatic juice secretion as compared with the control (100%): 214%
[2]; i.v. 1000 μg/Kg
  total volume of pancreatic juice as compared with the control (100%): 254%
[2]; i.v. 1000 μg/kg
  Amount of Bicarbonate Ion Secretion: 224 ± 24.7 µEq/h
  Bicarbonate Ion Concentration: 79.8 ± 5.6 mEq/l
  Pancreatic Juice Secretion, Total: 2805 ± 225 µL
[2]; i.v. 1000 μg/kg, 0-15 min
  Pancreatic Juice Secretion: 1363 ± 117 µL
[2]; i.v. 1000 μg/kg, 15-30 min
  Pancreatic Juice Secretion: 573 ± 69 µL
[2]; i.v. 1000 μg/kg, 30-45 min
  Pancreatic Juice Secretion: 455 ± 100 µL
[2]; i.v. 1000 μg/kg, 45-60 min
  Pancreatic Juice Secretion: 414 ± 112 µL
[2]; i.v. 1000 μg/kg, after 15 minutes
  pancreatic juice secretion as compared with the control (100%): 440%
[2]; i.v. 1000 μg/kg, after 30 minutes
  pancreatic juice secretion as compared with the control (100%): 202%
Platelet aggregation [3]; inducer ADP
  inhibition at 1 mg/kg: 16.8%
  inhibition at 10 mg/kg: 33.8%
Platelet aggregation [3]; inducer collagen
  inhibition at 1 mg/kg: 20.6%
  inhibition at 10 mg/kg: 59.5%
Platelet aggregation [3]; p.o. 10 mg/Kg or 1 mg/Kg, ADP- or collagen-induced
  aggregation inhibitory activity ex vivo (in words): significant aggregation inhibitory activity
Platelet aggregation [4]; inducer ADP
  IC50: 3800 nM
Platelet aggregation [4]; inducer collagen
  IC50: 330 nM
3LL; 1 mg/kg
  Number of Metastatic Nodules in the Lungs: 15.4 ± 2.8
3LL; 3 mg/kg
  Number of Metastatic Nodules in the Lungs: 5.9 ± 1.3
3LL; 10 mg/kg
  Number of Metastatic Nodules in the Lungs: 4.0 ± 1.1
Platelet aggregation [5]; inducer ADP
  inhibition at 0.02 mg/kg: 11%
  inhibition at 0.067 mg/kg: 37%
Platelet aggregation [5]; inducer collagen
  inhibition at 0.02 mg/kg: 86%
  inhibition at 0.067 mg/kg: 100%
Circulatory system
  reduction in blood pressure and increase in heart beat (in words): relatively small and also these changes can be restored in short periods of time
Circulatory system; 1 hr after admin.
  Increase in Heart Beat: 27%
  Reduction in Blood Pressure: 18%
Circulatory system; 2 hr after admin.
  Increase in Heart Beat: 32%
  Reduction in Blood Pressure: 12%
Circulatory system; 3 hr after admin.
  Increase in Heart Beat: 27%
  Reduction in Blood Pressure: 12%
Circulatory system; 5 hr after admin.
  Increase in Heart Beat: 25%
  Reduction in Blood Pressure: 12%
Circulatory system; 6 hr after admin.
  Increase in Heart Beat: 17%
  Reduction in Blood Pressure: 9%
